Assays:
[1] = test system: MDA-MB-468; assay: Cytotoxicity against human MDA-MB-468 cells assessed as growth inhibition at 10 uM relative to control; assay type: functional; details: read-out: GI
[2] = test system: PC-3; assay: Cytotoxicity against human PC-3 cells assessed as growth inhibition at 10 uM relative to control; assay type: functional; details: read-out: GI
[3] = test system: Hs-578T; assay: Cytotoxicity against human Hs-578T cells assessed as growth inhibition at 10 uM relative to control; assay type: functional; details: read-out: GI
[4] = test system: T47D; assay: Cytotoxicity against human T47D cells assessed as growth inhibition at 10 uM relative to control; assay type: functional; details: read-out: GI
[5] = test system: IGROV-1; assay: Cytotoxicity against human IGROV-1 cells assessed as growth inhibition at 10 uM relative to control; assay type: functional; details: read-out: GI
[6] = test system: UACC-62; assay: Cytotoxicity against human UACC-62 cells assessed as growth inhibition at 10 uM relative to control; assay type: functional; details: read-out: GI
[7] = test system: SF-268; assay: Cytotoxicity against human SF-268 cells assessed as growth inhibition at 10 uM relative to control; assay type: functional; details: read-out: GI
[8] = test system: RPMI-8226; assay: Cytotoxicity against human RPMI-8226 cells assessed as growth inhibition at 10 uM relative to control; assay type: functional; details: read-out: GI
[9] = test system: MOLT-4; assay: Cytotoxicity against human MOLT-4 cells assessed as growth inhibition at 10 uM relative to control; assay type: functional; details: read-out: GI
[10] = test system: K562; assay: Cytotoxicity against human K562 cells assessed as growth inhibition at 10 uM relative to control; assay type: functional; details: read-out: GI
[11] = test system: CCRF-CEM; assay: Cytotoxicity against human CCRF-CEM cells assessed as growth inhibition at 10 uM relative to control; assay type: functional; details: read-out: GI
[12] = test system: BT-549; assay: Cytotoxicity against human BT-549 cells assessed as growth inhibition at 10 uM relative to control; assay type: functional; details: read-out: GI
[13] = test system: MCF7; assay: Cytotoxicity against human MCF7 cells assessed as growth inhibition at 10 uM relative to control; assay type: functional; details: read-out: GI
[14] = test system: UO-31; assay: Cytotoxicity against human UO-31 cells assessed as growth inhibition at 10 uM relative to control; assay type: functional; details: read-out: GI
[15] = test system: CAKI-1; assay: Cytotoxicity against human CAKI-1 cells assessed as growth inhibition at 10 uM relative to control; assay type: functional; details: read-out: GI
[16] = test system: A498; assay: Cytotoxicity against human A498 cells assessed as growth inhibition at 10 uM relative to control; assay type: functional; details: read-out: GI
[17] = test system: LOX IMVI; assay: Cytotoxicity against human LOX IMVI cells assessed as growth inhibition at 10 uM relative to control; assay type: functional; details: read-out: GI
[18] = test system: U-251; assay: Cytotoxicity against human U-251 cells assessed as growth inhibition at 10 uM relative to control; assay type: functional; details: read-out: GI
[19] = test system: SNB-75; assay: Cytotoxicity against human SNB-75 cells assessed as growth inhibition at 10 uM relative to control; assay type: functional; details: read-out: GI
[20] = test system: NCI-H522; assay: Cytotoxicity against human NCI-H522 cells assessed as growth inhibition at 10 uM relative to control; assay type: functional; details: read-out: GI
[21] = test system: M14; assay: cells; details: Homo sapiens, M14, 24 h
[22] = test system: M14; assay: cells; details: Homo sapiens, M14, light or radiation study
[23] = test system: SR; assay: Cytotoxicity against human SR cells assessed as growth inhibition at 10 uM relative to control; assay type: functional; details: read-out: GI
[24] = test system: SF-539; assay: Cytotoxicity against human SF-539 cells assessed as growth inhibition at 10 uM relative to control; assay type: functional; details: read-out: GI
[25] = test system: SW-620; assay: Cytotoxicity against human SW-620 cells assessed as growth inhibition at 10 uM relative to control; assay type: functional; details: read-out: GI
[26] = test system: HOP-62; assay: Cytotoxicity against human HOP-62 cells assessed as growth inhibition at 10 uM relative to control; assay type: functional; details: read-out: GI
[27] = test system: SK-OV-3; assay: Cytotoxicity against human SK-OV-3 cells assessed as growth inhibition at 10 uM relative to control; assay type: functional; details: read-out: GI
[28] = test system: M14; assay: Cytotoxicity against human M14 cells assessed as growth inhibition at 10 uM relative to control; assay type: functional; details: read-out: GI
[29] = test system: HOP-92; assay: Cytotoxicity against human HOP-92 cells assessed as growth inhibition at 10 uM relative to control; assay type: functional; details: read-out: GI
[30] = test system: ACHN; assay: Cytotoxicity against human ACHN cells assessed as growth inhibition at 10 uM relative to control; assay type: functional; details: read-out: GI
[31] = test system: NCI/ADR-RES; assay: Cytotoxicity against human NCI/ADR-RES cells assessed as growth inhibition at 10 uM relative to control; assay type: functional; details: read-out: GI
[32] = test system: NCI-H23; assay: Cytotoxicity against human NCI-H23 cells assessed as growth inhibition at 10 uM relative to control; assay type: functional; details: read-out: GI
[33] = test system: UACC-257; assay: Cytotoxicity against human UACC-257 cells assessed as growth inhibition at 10 uM relative to control; assay type: functional; details: read-out: GI
[34] = test system: HUVEC; assay: Cytotoxicity against HUVEC cells assessed as effect on cell morphology at 10 ug/ml measured after 72 hrs; assay type: toxicity, cell-based; details: human, dose 10 µg/ml
[35] = target: Vascular endothelial growth factor receptor 2 (Homo sapiens, UniProt P35968); assay: Inhibition of recombinant VEGFR2 (unknown origin) by kinase glo detection reagent based assay
[36] = test system: UO-31; assay: Induction of apoptosis in human UO-31 cells assessed as increase in caspase-3 level by measuring optical density by Western blot densitometry analysis (reference value: 0.095); assay type: functional
[37] = test system: NCI-H322M; assay: Cytotoxicity against human NCI-H322M cells assessed as growth inhibition at 10 uM relative to control; assay type: functional; details: read-out: GI
[38] = test system: NCI-H226; assay: Cytotoxicity against human NCI-H226 cells assessed as growth inhibition at 10 uM relative to control; assay type: functional; details: read-out: GI
[39] = test system: MDA-MB-231; assay: Cytotoxicity against human MDA-MB-231 cells assessed as growth inhibition at 10 uM relative to control; assay type: functional; details: read-out: GI
[40] = test system: EKVX; assay: Cytotoxicity against human EKVX cells assessed as growth inhibition at 10 uM relative to control; assay type: functional; details: read-out: GI
[41] = test system: UO-31; assay: cells; details: Homo sapiens, UO-31, 24 h

Vascular endothelial growth factor receptor 2, sequence (P35968 whole entry): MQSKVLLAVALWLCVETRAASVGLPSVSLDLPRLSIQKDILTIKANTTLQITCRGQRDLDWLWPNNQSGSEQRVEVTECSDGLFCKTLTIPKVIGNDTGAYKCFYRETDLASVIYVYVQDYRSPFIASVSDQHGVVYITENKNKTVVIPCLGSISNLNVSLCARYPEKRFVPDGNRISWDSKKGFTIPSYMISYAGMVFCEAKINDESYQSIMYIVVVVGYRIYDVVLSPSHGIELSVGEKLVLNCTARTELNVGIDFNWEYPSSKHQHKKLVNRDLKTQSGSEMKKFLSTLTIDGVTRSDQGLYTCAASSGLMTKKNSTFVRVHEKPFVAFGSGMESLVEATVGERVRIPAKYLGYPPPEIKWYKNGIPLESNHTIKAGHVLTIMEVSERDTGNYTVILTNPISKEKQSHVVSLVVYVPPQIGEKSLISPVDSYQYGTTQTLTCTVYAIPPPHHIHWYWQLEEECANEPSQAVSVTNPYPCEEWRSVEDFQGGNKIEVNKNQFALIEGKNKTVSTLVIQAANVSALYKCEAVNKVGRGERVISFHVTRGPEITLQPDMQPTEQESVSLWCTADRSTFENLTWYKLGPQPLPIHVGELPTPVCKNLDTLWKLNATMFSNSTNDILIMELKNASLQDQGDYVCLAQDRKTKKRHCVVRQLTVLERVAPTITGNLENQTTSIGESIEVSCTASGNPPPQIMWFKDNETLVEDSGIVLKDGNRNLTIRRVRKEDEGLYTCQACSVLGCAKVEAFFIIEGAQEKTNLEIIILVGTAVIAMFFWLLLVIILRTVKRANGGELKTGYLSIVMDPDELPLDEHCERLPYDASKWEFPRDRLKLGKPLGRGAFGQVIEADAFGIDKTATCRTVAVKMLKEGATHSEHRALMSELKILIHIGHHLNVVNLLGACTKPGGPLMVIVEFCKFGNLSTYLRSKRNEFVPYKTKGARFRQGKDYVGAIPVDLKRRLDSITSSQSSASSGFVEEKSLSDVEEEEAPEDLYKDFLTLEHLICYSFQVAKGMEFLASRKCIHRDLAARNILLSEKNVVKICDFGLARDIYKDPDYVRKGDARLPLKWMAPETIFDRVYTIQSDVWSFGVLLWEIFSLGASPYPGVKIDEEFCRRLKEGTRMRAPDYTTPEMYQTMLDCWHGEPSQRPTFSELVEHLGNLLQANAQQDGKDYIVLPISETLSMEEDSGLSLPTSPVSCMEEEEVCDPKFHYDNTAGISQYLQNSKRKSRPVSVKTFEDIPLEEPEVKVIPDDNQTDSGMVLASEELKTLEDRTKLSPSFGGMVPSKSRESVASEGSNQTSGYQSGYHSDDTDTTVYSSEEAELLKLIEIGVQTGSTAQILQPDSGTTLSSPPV

`O=C(CSc1nc2ccccc2c(=O)n1-c1ccc(S(=O)(=O)Nc2ccc(Cl)nn2)cc1)Nc1ccccc1` was tested, and the inhibition of growth at 10 µM [1] was 15%, the inhibition of growth at 10 µM [2] was 14% and the inhibition of growth at 10 µM [3] was 27%. It also gave an inhibition of growth at 10 µM [4] of 18%, an inhibition of growth at 10 µM [5] of 13% and an inhibition of growth at 10 µM [6] of 35%. The inhibition of growth at 10 µM [7] was 10%, the inhibition of growth at 10 µM [8] was 11% and the inhibition of growth at 10 µM [9] was 18%. The inhibition of growth at 10 µM [10] was 12%, the inhibition of growth at 10 µM [11] was 11% and the inhibition of growth at 10 µM [12] was 13%. For the same compound, the inhibition of growth at 10 µM [13] was 17%, the inhibition of growth at 10 µM [14] was 13% and the inhibition of growth at 10 µM [15] was 12%. The inhibition of growth at 10 µM [16] was 15%, the inhibition of growth at 10 µM [17] was 18% and the inhibition of growth at 10 µM [18] was 22%. For the same compound, the inhibition of growth at 10 µM [19] was 11%, the inhibition of growth at 10 µM [20] was 10% and the IC50 [21] was 4.46 µM. It also gave an IC50 [22] of 4.76 µM.

`O=c1c2ccccc2[nH]c(=S)n1-c1ccc(S(=O)(=O)Nc2ccc(Cl)nn2)cc1` gave an inhibition of growth at 10 µM [14] of 17%, an inhibition of growth at 10 µM [15] of 10% and an inhibition of growth at 10 µM [20] of 11%.

`CCCCNC(=O)CSc1nc2ccccc2c(=O)n1-c1ccc(S(=O)(=O)Nc2ccc(Cl)nn2)cc1` was tested, and the inhibition of growth at 10 µM [14] was 12% and the inhibition of growth at 10 µM [16] was 25%.

With `O=C(CSc1nc2ccccc2c(=O)n1-c1ccc(S(=O)(=O)Nc2ccc(Cl)nn2)cc1)Nc1ccc(S(=O)(=O)Nc2ccc(Cl)nn2)cc1` the inhibition of growth at 10 µM [23] was 13%, the inhibition of growth at 10 µM [10] was 12% and the inhibition of growth at 10 µM [14] was 12%. The inhibition of growth at 10 µM [17] was 10%.

Work on `O=C(CSc1nc2ccccc2c(=O)n1-c1ccc(Cl)c(Cl)c1)Nc1ccc(S(=O)(=O)Nc2ccc(Cl)nn2)cc1` yielded an inhibition of growth at 10 µM [24] of 10%, an inhibition of growth at 10 µM [25] of 10% and an inhibition of growth at 10 µM [26] of 12%. For the same compound, the inhibition of growth at 10 µM [4] was 14%, the inhibition of growth at 10 µM [27] was 11% and the inhibition of growth at 10 µM [6] was 15%. It also gave an inhibition of growth at 10 µM [14] of 20%, an inhibition of growth at 10 µM [15] of 18% and an inhibition of growth at 10 µM [28] of 14%. It also gave an inhibition of growth at 10 µM [19] of 31%, an inhibition of growth at 10 µM [20] of 10% and an inhibition of growth at 10 µM [29] of 28%.

Compound `NS(=O)(=O)c1ccc(-n2c(SCC(=O)Nc3ccc(S(=O)(=O)Nc4ccc(Cl)nn4)cc3)nc3ccccc3c2=O)cc1` has an inhibition of growth at 10 µM [30] of 10%, an inhibition of growth at 10 µM [31] of 11% and an inhibition of growth at 10 µM [24] of 11%. The inhibition of growth at 10 µM [32] was 14%, the inhibition of growth at 10 µM [11] was 10% and the inhibition of growth at 10 µM [14] was 17%. For the same compound, the inhibition of growth at 10 µM [33] was 10% and the inhibition of growth at 10 µM [29] was 24%.

For `O=C(CSc1nc2ccccc2c(=O)n1CCc1ccccc1)Nc1ccc(S(=O)(=O)Nc2ccc(Cl)nn2)cc1`, the Activity [34] was “Non-Toxic”, the IC50 [35] was 0.066 µM and the OD [36] was 0.772.

`O=c1c2cccc(Br)c2[nH]c(=S)n1-c1ccc(S(=O)(=O)Nc2ccc(Cl)nn2)cc1` was tested, and the inhibition of growth at 10 µM [14] was 20%, the inhibition of growth at 10 µM [15] was 13% and the inhibition of growth at 10 µM [19] was 11%. For the same compound, the inhibition of growth at 10 µM [20] was 12%.

For `CCCCn1c(SCC(=O)Nc2ccc(S(=O)(=O)Nc3ccc(Cl)nn3)cc2)nc2ccccc2c1=O`, the inhibition of growth at 10 µM [37] was 12%, the inhibition of growth at 10 µM [38] was 10% and the inhibition of growth at 10 µM [26] was 14%. For the same compound, the inhibition of growth at 10 µM [39] was 10%, the inhibition of growth at 10 µM [27] was 16% and the inhibition of growth at 10 µM [5] was 15%. It also gave an inhibition of growth at 10 µM [6] of 14%, an inhibition of growth at 10 µM [40] of 11% and an inhibition of growth at 10 µM [12] of 14%. The inhibition of growth at 10 µM [14] was 29%, the inhibition of growth at 10 µM [15] was 18% and the inhibition of growth at 10 µM [18] was 10%. The inhibition of growth at 10 µM [19] was 23%, the inhibition of growth at 10 µM [20] was 13% and the inhibition of growth at 10 µM [29] was 32%. For the same compound, the IC50 [41] was 14.7 µM.

For `CCn1c(SCC(=O)Nc2ccc(S(=O)(=O)Nc3ccc(Cl)nn3)cc2)nc2ccccc2c1=O`, the inhibition of growth at 10 µM [23] was 12%, the inhibition of growth at 10 µM [14] was 12% and the inhibition of growth at 10 µM [16] was 10%.

Reference: ChEMBL document CHEMBL5385860, “Antiproliferative, antiangiogenic and apoptotic effect of new hybrids of quinazoline-4(3H)-ones and sulfachloropyridazine” (Eur J Med Chem, 2023)
